Measured values taken from PubChem BioAssay AID463180 (University of Pittsburgh Molecular Library Screening Center, 2010).
Calls of active or inactive are those of the source. The rule behind the calls is not given here.

These compounds were tested against Furin (Homo sapiens) (UniProt P09958) (assay: furin substrate cleavage inhibition retest – biochemical, fluorescence intensity, confirmation (AID 463180)). Conditions: Recombinant furin, fluorogenic substrate cleavage, at 50 µM, stronger effect = higher value.
Chain of Furin (Homo sapiens) (P09958 108-714 limits assumed): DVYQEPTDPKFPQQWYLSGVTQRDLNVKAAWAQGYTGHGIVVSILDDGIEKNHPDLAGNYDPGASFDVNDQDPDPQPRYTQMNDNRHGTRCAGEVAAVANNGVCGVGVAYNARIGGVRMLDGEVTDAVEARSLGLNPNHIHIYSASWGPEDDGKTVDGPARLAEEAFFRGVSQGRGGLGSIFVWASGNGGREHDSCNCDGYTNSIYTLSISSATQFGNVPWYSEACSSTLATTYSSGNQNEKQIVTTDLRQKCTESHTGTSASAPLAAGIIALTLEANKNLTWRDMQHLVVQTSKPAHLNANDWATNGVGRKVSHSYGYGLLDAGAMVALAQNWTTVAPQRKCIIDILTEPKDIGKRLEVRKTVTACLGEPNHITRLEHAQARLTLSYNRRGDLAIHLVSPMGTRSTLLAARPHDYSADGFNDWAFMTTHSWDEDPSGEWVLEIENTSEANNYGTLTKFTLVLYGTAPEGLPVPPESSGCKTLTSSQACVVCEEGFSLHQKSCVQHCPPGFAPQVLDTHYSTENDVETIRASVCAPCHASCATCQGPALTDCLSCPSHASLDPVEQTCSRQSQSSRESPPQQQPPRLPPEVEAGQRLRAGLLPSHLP
For `COc1ccc(C(=O)NCCN2CCOCC2)cc1OC`, the inhibition was -19.6% (inactive).
`CCCCOc1ccc(-c2ncc(Cl)cn2)cc1` was tested, and the inhibition was -14.4% (inactive).
In the case of `COC(=O)c1ccc(NC2(C#N)C(=O)Nc3ccccc32)cc1` (stereo not given), the inhibition is reported as -18.6% (inactive).
For `Cc1ccc(-n2nc3cc(C)c(NC(=O)c4cccnc4)cc3n2)cc1`, the inhibition was -15.7% (inactive).
`COc1cc(NC(=O)c2ccccc2)c(OC)cc1Cl` was tested, and the inhibition was -9.8% (inactive).
For `CCSc1ccccc1C(=O)Nc1nncs1`, the inhibition was -22.6% (inactive).
In the case of `COc1cc(/C=C/C(=O)OCC(=O)NC(=O)NC(C)C)ccc1O`, the inhibition is reported as 3.94% (inactive).
With `Cn1ncc(Cl)c1C(=O)Nc1cccc(Cl)c1` the inhibition was -11% (inactive).
For `CCOC(=O)C(CC)Sc1nnc(COc2ccc(C)cc2)n1-c1ccccc1` (stereo not given), the inhibition was -0.94% (inactive).
For `O=C(CN1C(=O)C2C3C=CC(C3)C2C1=O)NCc1ccc2c(c1)OCO2` (stereo not given), the inhibition was -17.4% (inactive).
`O=C(CCN1C(=O)c2ccccc2C1=O)N(CCO)Cc1ccccc1` was tested, and the inhibition was -16.7% (inactive).
In the case of `CSc1nc(N)c(N=Nc2ccc([As](=O)(O)O)cc2)c(=O)[nH]1`, the inhibition is reported as 15.9%.
With `CC(=O)Nc1cc(-c2ccc(Cl)cc2)nn1-c1ccccc1` the inhibition was -20% (inactive).
For `CCOC(=O)c1cc(C)sc1/N=C/C1C(=O)CCCC1=O`, the inhibition was -15.3% (inactive).
With `COc1ccc(S(=O)(=O)Nc2cc(C(C)C)c(O)cc2C)cc1` the inhibition was -20.4% (inactive).
Work on `CCCOP(=O)(c1ccc(N(C)C)cc1)C(Nc1ccccc1)c1ccc(N(C)C)cc1` (stereo not given) yielded an inhibition of 31.5%.
With `CC1(C)CC(=O)C(/C=N/n2cnc3ccccc3c2=O)=C(O)C1` the inhibition was 7.64% (inactive).
In the case of `Cc1ccc2nc(/C(C#N)=C/c3cn[nH]c3-c3ccc(F)cc3)[nH]c2c1`, the inhibition is reported as 8.39% (inactive).
`OC(CNCC1CCCO1)Cn1c2ccc(Br)cc2c2cc(Br)ccc21` (stereo not given) was tested, and the inhibition was -2.62% (inactive).
`CC1(C)CC(=O)C(C=Nc2ccc(Cl)cn2)=C(O)C1` was tested, and the inhibition was -4.84% (inactive).
`CNc1nc(NCCOC23CC4CC(CC(C4)C2)C3)nc(OCC(F)(F)F)n1` was tested, and the inhibition was -19.7% (inactive).
For `CCCOc1ccc(C2NC(=O)NC2=O)cc1` (stereo not given), the inhibition was -10.8% (inactive).
With `NC(=O)c1ccccc1N/C=C/C(=O)c1ccc(F)cc1` the inhibition was -9.67% (inactive).
`OC1C2CN3CCN(C2)CC1(Cc1ccccc1)C3` (stereo not given) was tested, and the inhibition was -20.6% (inactive).
In the case of `O=C1CC(N2CCC(c3nc4ccccc4o3)CC2)C(=O)N1Cc1cccs1` (stereo not given), the inhibition is reported as -13.2% (inactive).
In the case of `O=C(Nc1ccccc1)N(CCN1CCOCC1)Cc1ccccc1F`, the inhibition is reported as -13% (inactive).
In the case of `CNC(=O)C1CC(=O)N(CCc2ccc(OC)cc2)C(=Nc2ccc(OC)cc2)S1` (stereo not given), the inhibition is reported as -13.8% (inactive).
For `CCNC(=O)C1CC(=O)N(Cc2ccc3c(c2)OCO3)C(=Nc2ccc(F)cc2)S1` (stereo not given), the inhibition was -9.04% (inactive).
Work on `Cc1cccc(-n2c(O)c(/C=C/C=Nc3ccccc3)c(=O)[nH]c2=O)c1` yielded an inhibition of 14.2%.
In the case of `Cc1cccc(/C=C2/S/C(=N/N=C3\CC4CCC3(C)C4(C)C)NC2=O)c1` (stereo not given), the inhibition is reported as 12.3%.
In the case of `Cc1cccc(/N=C/C2=C(O)CC(C)(C)CC2=O)n1`, the inhibition is reported as 13.1%.
`CC1(C)CC(=O)C(C=Nc2cccnc2)=C(O)C1` was tested, and the inhibition was 21.6%.
In the case of `COc1cc(S(=O)(=O)Nc2ncccc2C)c(OC)cc1Cl`, the inhibition is reported as -4.1% (inactive).
In the case of `O=C(c1ccco1)N1CCN(C2CC(=O)N(c3ccc4c(c3)OCO4)C2=O)CC1` (stereo not given), the inhibition is reported as -17% (inactive).
For `CCC(C)C(NC(=O)C1CCC(C)CC1)C(=O)NCc1cccnc1` (stereo not given), the inhibition was -18.4% (inactive).
`Cc1nc(SCc2ccc(O)c([N+](=O)[O-])c2)n[nH]1` was tested, and the inhibition was 0.762% (inactive).
For `CCCCN1CCC(O)(c2ccccc2)C(C(=O)c2ccccc2)C1` (stereo not given), the inhibition was -20.5% (inactive).
`CCOC(=O)C(C(=O)NCC1CCCO1)C1CCCCC1` (stereo not given) was tested, and the inhibition was -17.6% (inactive).
For `CCN1CCS/C1=C/C=C/C1=[N+](CC)CCS1`, the inhibition was 61.3%.
With `COc1ccc(N=CC2=C(O)CC(C)(C)CC2=O)cc1` the inhibition was 8.92% (inactive).
In the case of `CC1(C)CC(=O)C(C=Nc2cccnc2/N=C/C2=C(O)CC(C)(C)CC2=O)=C(O)C1`, the inhibition is reported as 0.675% (inactive).
In the case of `COC(=O)c1ccc(Cn2nc(C)c(Cl)c2C)o1`, the inhibition is reported as -14.9% (inactive).
In the case of `CCC(Sc1ncccc1C(=O)O)C(=O)N1CCCC1` (stereo not given), the inhibition is reported as -20.2% (inactive).
With `CC1(C)CC(=O)C(/C=N/c2ccccn2)=C(O)C1` the inhibition was 2.22% (inactive).
In the case of `COC(=O)COc1ccc(S(=O)(=O)NCC2CCCO2)cc1Cl` (stereo not given), the inhibition is reported as -21.4% (inactive).
`COC(=O)c1[nH]c2ccccc2c1NC(=O)CN1CCC(C(N)=O)(N2CCCCC2)CC1` was tested, and the inhibition was -12.8% (inactive).
Work on `Cc1ccccc1-n1c(O)c(C=Nc2ccc(N(C)C)cc2)c(=O)[nH]c1=O` yielded an inhibition of 20.3%.
For `CCCCCC(=O)N(CN1C(=O)CCC1=O)c1ccccc1`, the inhibition was -20.9% (inactive).
With `CSc1n[nH]c(NCc2ccc(C)cc2)n1` the inhibition was -16.7% (inactive).
For `CCn1c(C)c(CCC(=O)O)c(=O)n2nc(-c3ccccc3OC)cc12`, the inhibition was -22.2% (inactive).
With `Cc1cc(N=CC2=C(O)CC(C)(C)CC2=O)no1` the inhibition was -1.24% (inactive).
In the case of `COc1cc(C(=O)Nc2ccc(-c3nnc(-c4ccco4)o3)cc2)cc(OC)c1OC`, the inhibition is reported as -21% (inactive).
`O=C(CN1C(=O)c2ccccc2C1=O)Nc1sc2c(c1C(=O)NCc1ccco1)CCCC2` was tested, and the inhibition was -11.4% (inactive).
`CCOC(=O)c1cc(C)sc1/N=C/C1=C(O)CCCC1=O` was tested, and the inhibition was -5.31% (inactive).
`O=C1CC(=C2c3ccccc3-c3ccccc32)C(=O)N1CCCCN1CCN(c2ccccc2)CC1` was tested, and the inhibition was 9.51% (inactive).
`COC(=O)c1[nH]c2cc(OC)ccc2c1NC(=O)CCN1CCCCC1` was tested, and the inhibition was -14.9% (inactive).
In the case of `CCn1c(SCC(=O)Nc2cc(F)ccc2C)nnc1-c1ccccc1O`, the inhibition is reported as -18.5% (inactive).
`CCOC(=O)c1cc(CC)sc1/N=C/C1=C(O)CCCC1=O` was tested, and the inhibition was -4.4% (inactive).
In the case of `CN1/C(=C\C=C2C(=O)NC(=O)NC2=O)C(C)(C)c2ccccc21`, the inhibition is reported as 1.52% (inactive).
For `CCOC(=O)NC(=O)CSc1nnnn1-c1ccccc1`, the inhibition was -19.1% (inactive).
In the case of `O=C(C1Cc2ccccc2CN1S(=O)(=O)c1cccs1)N1CCCCC1` (stereo not given), the inhibition is reported as -7.18% (inactive).
With `CCOC(=O)c1c(/N=C/C2=C(O)CCCC2=O)sc(C)c1C` the inhibition was -13.1% (inactive).
`N#CC1=C(N)NC(SCc2ccc(Br)cc2)=C(C#N)C12CCCCC2` was tested, and the inhibition was -6.5% (inactive).
`CCN1CCS/C1=C\C=C\C1=[N+](CC)CCS1` gave an inhibition of 63.4%.
For `CN1CCN(c2ccccc2NC(=O)c2cccc(OCc3ccccc3)c2)CC1`, the inhibition was -16% (inactive).
For `O=C(Cc1c[nH]c2ccccc12)N1CCc2ccccc21`, the inhibition was -24.6% (inactive).
In the case of `CCCC(=O)Nc1cccc(Oc2nc(C)cc(C)c2C#N)c1`, the inhibition is reported as -3.32% (inactive).
With `COc1ccc(S(=O)(=O)NCCC(=O)NCc2ccc(F)cc2)cc1` the inhibition was -20.3% (inactive).
For `CCCCCCN1C=CC=C/C1=C/C=C(C#N)C#N`, the inhibition was 6.58% (inactive).
In the case of `O=C1C=C(c2ccc(Cl)cc2)OC2(CCCC2)O1`, the inhibition is reported as -10.7% (inactive).
For `O=C(COC(=O)c1ccc[nH]c1=O)NCC1CCCO1` (stereo not given), the inhibition was -31.2% (inactive).
In the case of `Cc1ccc(SCCCCN2C(=O)NC(C)(C)C2=O)cc1`, the inhibition is reported as -8.35% (inactive).
`CCOC(=O)C(CC)Sc1nc2c(c(=O)[nH]c(=O)n2C)n1C/C=C(/C)Cl` (stereo not given) was tested, and the inhibition was -19.2% (inactive).
`COc1cccc(-n2nnc3c(=O)n(Cc4ccccc4Cl)cnc32)c1` was tested, and the inhibition was -14.9% (inactive).
For `CCCCCc1nnc(NC(=O)C2CCCO2)s1` (stereo not given), the inhibition was -22.1% (inactive).
For `COc1ccc(NC(=O)CSc2nncn2C)cc1OC`, the inhibition was -12.4% (inactive).
For `O=C1CC(c2ccccc2)CC(=O)C1=CN1CCCC1` (stereo not given), the inhibition was 1.13% (inactive).
With `COc1nc(C)ccc1-c1noc(-c2ccccn2)n1` the inhibition was -16.6% (inactive).
With `O=C(COc1ccc(Cl)cc1Cl)NC(=O)N1CCOCC1` the inhibition was -20.4% (inactive).
With `Cc1cc(Cl)ccc1OCCCC(=O)N1CCOCC1` the inhibition was -18.9% (inactive).
For `Cc1cc(N=CC2=C(O)CCCC2=O)no1`, the inhibition was -4.93% (inactive).
`O=C(NCc1ccccc1)C1COc2ccccc2O1` (stereo not given) was tested, and the inhibition was -16.5% (inactive).
In the case of `Cc1c(NC(=O)c2ccc(Cl)c(S(=O)(=O)N3CCOCC3)c2)c(=O)n(-c2ccccc2)n1C`, the inhibition is reported as -23.3% (inactive).
With `COc1ccccc1NC(=O)c1cc(S(=O)(=O)N2CCOCC2)ccc1Cl` the inhibition was -16.1% (inactive).
With `COc1ccccc1C(=O)NC(C)C(c1cccs1)N1CCOCC1` (stereo not given) the inhibition was -25.9% (inactive).
With `COc1ccc(/C=N/n2c(=O)[nH]c3c([nH]c4ccc(C)cc43)c2=O)cc1CN1CCOCC1` the inhibition was -14% (inactive).
In the case of `COc1ccc(NC(=O)Nc2ncn(Cc3cccc(C(F)(F)F)c3)n2)cc1OC`, the inhibition is reported as -15.8% (inactive).
With `C=CCn1c(O)c(/C=N/NC(=O)c2ccncc2)c(=O)[nH]c1=O` the inhibition was 5.98% (inactive).
In the case of `CC(=O)NC(C)c1nc2ccccc2n1Cc1ccccc1F` (stereo not given), the inhibition is reported as -16.7% (inactive).
For `COC(=O)C1C(=O)/C(=C/N(C)C)C(=O)CC1(C)C` (stereo not given), the inhibition was 4.91% (inactive).
